Test results from patent publication US12110288B2, “MASP-2 inhibitors and methods of use” (Omeros Corporation, priority 2019, dated 2024).
Where a name gives a salt, the structure may show the parent alone.

target: T1, MASP-2 (CCP1-CCP2-SP) (Homo sapiens, UniProt O00187); experiment: Enzymatic Assay for MASP-2; format: biochemical; conditions: fluorogenic substrate based on C2 cleavage site, room temperature, 20 mM HEPES pH 7.4
T1 construct: 15 μL of Enzyme MASP-2 (CCP1-CCP2-SP) in Assay Buffer
Protocol: Enzymatic Assay for MASP-2
The MASP-2 assay utilizes a fluorogenic substrate, based on the cleavage site for its natural substrate C2. The assay is run at room temperature in an assay buffer containing 20 mM HEPES, pH 7.4, 140 mM NaCl and 0.1% Tween 20. Assay parameters are adjusted such that the assay is linear with respect to time, enzyme, and substrate concentrations. Under these optimized assays conditions, IC50 values are equivalent to Ki values, except in a few cases of “tight binding” inhibitors. Cases of “tight binding” or possible “slow binding” inhibitors are handled by the methods described in Copeland R. A. (2013) Evaluation of Enzyme Inhibitors in Drug Discovery. 2nd Ed., John Wiley and Sons, Inc., Chapters 5-7.
The MASP-2 assay protocol is carried out as follows. Test compounds are serially diluted in DMSO and then 100 nL of each dilution is transferred to the assay plate(s). 10 μL of Assay Buffer is added, followed by 15 μL of Enzyme MASP-2 (CCP1-CCP2-SP) in Assay Buffer. 15 μL of Substrate in Assay Buffer is then added and mixed to start the reactions. After 20 min at room temperature, 15 μL of a stop solution (0.1 M acetic acid) is added, mixed and the plates are read on a SpectraMax i3x Microplate Reader and exported as Excel files. Each assay plate included a “no inhibitor” (DMSO Only) control, a “no enzyme” control and a reference inhibitor control. % Activity values=100*(average test comp. fluorescence−average “no enzyme” fluorescence)/(average “DMSO only” fluorescence−average “no enzyme” fluorescence). IC50 and Ki values are very reproducible, falling well within ±2-fold.

T1 sequence (O00187 445-686 limits assumed): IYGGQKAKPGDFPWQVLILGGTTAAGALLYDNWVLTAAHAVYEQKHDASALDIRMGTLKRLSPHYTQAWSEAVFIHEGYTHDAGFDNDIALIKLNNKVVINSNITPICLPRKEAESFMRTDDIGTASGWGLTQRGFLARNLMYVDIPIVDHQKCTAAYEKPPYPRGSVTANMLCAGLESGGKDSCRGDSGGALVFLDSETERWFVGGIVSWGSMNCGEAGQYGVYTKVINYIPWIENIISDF
T1 sequence (O00187 298-444 partner limits assumed): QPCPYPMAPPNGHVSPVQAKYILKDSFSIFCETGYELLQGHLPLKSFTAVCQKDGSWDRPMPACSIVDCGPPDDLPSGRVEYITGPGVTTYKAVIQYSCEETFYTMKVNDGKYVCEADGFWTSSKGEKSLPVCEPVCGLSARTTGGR

| Ki [nM] | SMILES |
| --- | --- |
| > 10000 | Cc1nc(N)ccc1CNC(=O)Cn1c(C)ncc(NS(=O)(=O)Cc2ccccc2)c1=O [Compound 1, N-((6-Amino-2-Methylpyridin-3-yl)Methyl)-2-(2-Methyl-6-Oxo-5-((Phenylmethyl)Sulfonamido)Pyrimidin-1(6H)-yl)Acetamide, Trifluoro Acetate] |
| < 500 | Cc1nc(N)ccc1CNC(=O)Cn1c(C)ncc(NCCc2ccccc2)c1=O [Compound 2, N-((6-Amino-2-Methylpyridin-3-yl)Methyl)-2-(2-Methyl-6-Oxo-5-(Phenethylamino)Pyrimidin-1(6H)-yl)Acetamide, Trifluoroacetate] |
| < 500 | Cc1ncc(NCCc2ccccc2)c(=O)n1CC(=O)NCc1ccc2nc(N)[nH]c2c1 [Compound 3, N-((2-Amino-1H-benzo[d]imidazol-6-yl)methyl)-2-(2-methyl-6-oxo-5-(phenethylamino)pyrimidin-1(6H)-yl)acetamide trifluoroacetate] |
| < 500 | Nc1nc2ccc(CNC(=O)Cn3c(-c4ccccc4)ncc(NCCc4ccccc4)c3=O)cc2[nH]1 [Compound 4, N-((2-Amino-1H-Benzo[d]Imidazol-6-yl)Methyl)-2-(6-Oxo-5-(Phenethylamino)-2-Phenylpyrimidin-1(6H)-yl)Acetamide, Trifluoroacetate] |
| < 500 | CSc1ncc(NCCc2ccccc2)c(=O)n1CC(=O)NCc1ccc2nc(N)[nH]c2c1 [Compound 5, N-((2-Amino-1H-Benzo[d]Imidazol-6-yl)Methyl)-2-(2-(Methylthio)-6-Oxo-5-(Phenethylamino)Pyrimidin-1(6H)-yl)Acetamide] |
| < 500 | Cc1nc(N)ccc1CNC(=O)Cn1c(-c2ccccc2)ncc(NCCc2ccccc2)c1=O [Compound 6, N-((6-Amino-2-Methylpyridin-3-yl)Methyl)-2-(6-Oxo-5-(Phenethylamino)-2-Phenylpyrimidin-1(6H)-yl)Acetamide] |
| < 500 | Nc1nc2ccc(CNC(=O)Cn3c(Br)cnc(NCCc4ccccc4)c3=O)cc2[nH]1 [Compound 8, N-((2-Amino-1H-Benzo[d]Imidazol-6-yl)Methyl)-2-(6-Bromo-2-Oxo-3-(Phenethylamino)Pyrazin-1(2H)-yl)Acetamide] |
| < 500 | Nc1nc2cc(CNC(=O)Cn3c(-c4ccccc4)cnc(NCCc4ccccc4)c3=O)ccc2[nH]1 [Compound 9, N-((2-Amino-1H-Benzo[d]Imidazol-5-yl)Methyl)-2-(2-Oxo-3-(Phenethylamino)-6-Phenylpyrazin-1(2H)-yl)Acetamide] |
| < 500 | N#Cc1cccc(-c2cnc(NCCc3ccccc3)c(=O)n2CC(=O)NCc2ccc3nc(N)[nH]c3c2)c1 [Compound 14, N-((2-Amino-1H-benzo[d]imidazol-6-yl)methyl)-2-(6-(3-cyanopheny1)-2-oxo-3-(phenethylamino)pyrazin-1(2H)-yl)acetamide] |
| < 500 | NC(=O)c1cccc(-c2cnc(NCCc3ccccc3)c(=O)n2CC(=O)NCc2ccc3nc(N)[nH]c3c2)c1 [Compound 15] |
| < 500 | Nc1nc2ccc(CNC(=O)Cn3c(-c4cccc(C(=O)O)c4)cnc(NCCc4ccccc4)c3=O)cc2[nH]1 [Compound 16] |
| < 500 | Cc1nc(N)ccc1CNC(=O)Cn1c(-c2ccc(Cl)cc2)cnc(NCCc2ccccc2)c1=O [Compound 17, N-((6-Amino-2-Methylpyridin-3-yl)Methyl)-2-(6-(4-Chlorophenyl)-2-Oxo-3-(Phenethylamino)Pyrazin-1(2H)-yl) Acetamide, Trifluoroacetate] |
| < 500 | Cc1nc(N)ccc1CNC(=O)Cn1c(-c2cccnc2)cnc(NCCc2ccccc2)c1=O [Compound 18, N-((6-amino-2-methylpyridin-3-yl)methyl)-2-(2-oxo-3-(phenethylamino)-6-(pyridin-3-yl)pyrazin-1(2H)-yl)acetamide trifluoroacetate] |
| < 500 | Cc1nc(N)ccc1CNC(=O)Cn1c(Cc2ccccc2)cnc(NCCc2ccccc2)c1=O [Compound 19, N-((6-amino-2-methylpyridin-3-yl)methyl)-2-(6-benzyl-2-oxo-3-(phenethylamino)pyrazin-1(2H)-yl)acetamide trifluoroacetate] |
